Results from patent US9533985B2, “Sulfonamide derivative and medicinal use thereof” (EA Pharma Co., Ltd., priority 2012, dated 2017).

Molecular target: α4β7 integrin (Homo sapiens (Human), UniProt P13612+P26010)
Assay: MAdCAM-1/α4β7 integrin binding inhibitory activity evaluation test in the presence of serum (2)
Type: cell-based
Conditions: RPMI-8866 cells binding to mouse MAdCAM-1/Fc, same manner as Test (3), read-out: α4β7 Rank of activity with serum added
Experimental: The ability of test substances to inhibit the binding of a human B cell line, RPMI-8866, which is known to express α4β7 integrin, to MAdCAM-1 was measured.
To 96-well microtiter plates, recombinant mouse MAdCAM-1/Fc (R&D systems) solution (1 μg/mL) diluted with buffer A (carbonate buffer, pH 9.6) was added at 50 μL/well, followed by incubation at 4° C. overnight. After washing once with PBS, Block Ace (Snow Brand Milk Products Company, Limited) was added at 150 μL/well, followed by incubation at room temperature for 2 hours. After removal, washing was conducted once with PBS.
100 μL of each test substance diluted with a binding buffer (DMEM containing 40 mM HEPES, 0.2% BSA, and 4 mM MnCl2) to various concentrations and 100 μL of RPMI-8866 cells (2×10^6 cell/mL) were added to plates coated with MAdCAM-1/Fc (5×10^5 cells/well) with human serum being contained at a final concentration of 50%, followed by incubation at 30° C. for 15 minutes to 60 minutes. After the cells were bound to each well, unbound cells were removed by washing with PBS. To the plates, buffer C (PBS containing 1.5% Triton X-100) was added at 50 μL/well to lyse the bound RPMI-8866 cells. To 30 μL of the cell lysate, 30 μL of Substrate Buffer (Promega, CytoTox 96 Non-Radioactive Cytotoxicity Assay) was added, and the reaction was allowed to proceed at room temperature in a dark place for 30 minutes. To each well, 30 μL of Stop Solution (Promega, CytoTox 96 Non-Radioactive Cytotoxicity Assay) was added, and the absorbance at 490 nm was measured by using a plate reader. Here, by the obtained absorbance, the activity of the lactate dehydrogenase (LDH) dissolved into the supernatant of each well was detected. In other words, the absorbance was proportional to the number of the RPMI-8866 cells bound to MAdCAM-1 and remaining on the plate. The test was duplicated. The binding ratios of the cells at various concentrations were determined, with the absorbance of a well containing no test substance taken as 100%. Then, the concentration IC50, at which 50% binding inhibition was achieved, was calculated.
The MAdCAM-1/α4β7 integrin binding inhibitory activity in the presence of serum was measured in the same manner as in Test (3) described above. […] The VCAM-1/α4β1 integrin binding inhibitory activity evaluation test and the MAdCAM-1/α4β7 integrin binding inhibitory activity evaluation test were carried out according to the methods described in Tests (1) and (2) described above.

α4β7 integrin, sequence (P13612 34-1032): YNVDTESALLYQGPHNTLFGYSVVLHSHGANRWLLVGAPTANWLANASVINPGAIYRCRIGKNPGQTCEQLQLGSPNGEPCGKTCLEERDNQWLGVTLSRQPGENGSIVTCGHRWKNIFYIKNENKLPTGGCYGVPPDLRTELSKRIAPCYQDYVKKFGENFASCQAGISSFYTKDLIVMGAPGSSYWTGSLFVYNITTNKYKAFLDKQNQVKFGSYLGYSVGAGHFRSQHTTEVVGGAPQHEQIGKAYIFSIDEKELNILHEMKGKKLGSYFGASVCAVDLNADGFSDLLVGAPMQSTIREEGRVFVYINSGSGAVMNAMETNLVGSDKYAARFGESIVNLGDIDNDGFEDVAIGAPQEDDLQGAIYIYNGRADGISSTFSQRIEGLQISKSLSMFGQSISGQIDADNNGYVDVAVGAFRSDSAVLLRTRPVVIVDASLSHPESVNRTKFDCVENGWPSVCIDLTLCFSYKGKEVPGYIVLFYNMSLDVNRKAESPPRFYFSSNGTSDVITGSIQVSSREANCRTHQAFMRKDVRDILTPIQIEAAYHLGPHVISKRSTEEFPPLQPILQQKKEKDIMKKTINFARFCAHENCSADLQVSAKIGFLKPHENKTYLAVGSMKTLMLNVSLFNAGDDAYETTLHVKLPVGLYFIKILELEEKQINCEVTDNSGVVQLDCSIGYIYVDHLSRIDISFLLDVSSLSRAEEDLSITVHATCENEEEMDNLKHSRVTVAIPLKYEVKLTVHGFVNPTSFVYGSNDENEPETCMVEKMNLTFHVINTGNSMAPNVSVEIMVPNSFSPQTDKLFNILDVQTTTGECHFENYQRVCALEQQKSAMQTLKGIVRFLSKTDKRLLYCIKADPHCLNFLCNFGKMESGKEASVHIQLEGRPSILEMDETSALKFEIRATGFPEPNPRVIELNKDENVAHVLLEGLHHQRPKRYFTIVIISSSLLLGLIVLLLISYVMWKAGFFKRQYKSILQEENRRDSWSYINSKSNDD
α4β7 integrin, sequence (P26010 20-798): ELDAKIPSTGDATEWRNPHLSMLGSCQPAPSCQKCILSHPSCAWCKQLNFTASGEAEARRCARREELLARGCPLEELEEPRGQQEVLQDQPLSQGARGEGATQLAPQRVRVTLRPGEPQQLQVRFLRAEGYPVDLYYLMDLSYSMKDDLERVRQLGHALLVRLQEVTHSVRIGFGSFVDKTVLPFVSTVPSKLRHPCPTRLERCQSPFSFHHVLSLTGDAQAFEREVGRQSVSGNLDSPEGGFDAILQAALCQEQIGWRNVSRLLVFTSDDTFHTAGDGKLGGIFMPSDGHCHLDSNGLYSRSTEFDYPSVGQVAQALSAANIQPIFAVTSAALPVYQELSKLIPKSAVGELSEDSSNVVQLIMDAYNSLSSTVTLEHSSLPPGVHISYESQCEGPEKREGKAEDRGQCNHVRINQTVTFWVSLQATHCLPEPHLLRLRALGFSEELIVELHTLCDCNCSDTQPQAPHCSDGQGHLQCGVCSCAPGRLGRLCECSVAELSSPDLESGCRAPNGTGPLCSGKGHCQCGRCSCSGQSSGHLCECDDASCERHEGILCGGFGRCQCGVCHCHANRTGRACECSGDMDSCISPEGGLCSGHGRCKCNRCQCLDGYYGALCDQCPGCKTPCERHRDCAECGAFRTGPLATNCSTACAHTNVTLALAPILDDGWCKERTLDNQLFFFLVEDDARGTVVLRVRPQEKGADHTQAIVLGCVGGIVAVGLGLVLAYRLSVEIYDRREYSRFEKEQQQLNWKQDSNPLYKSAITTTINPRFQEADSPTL

IC50 [nM]	SMILES
> 200	Cn1c(=O)n(-c2ccc(C[C@H](NC(=O)c3cc(F)c(NS(=O)(=O)c4ccc(-c5cc(F)cc(F)c5)cc4)cc3F)C(=O)O)nc2)c(=O)c2ccncc21 [Example 235, N-(4-{[(3′,5′-Difluorobiphenyl-4-yl)sulfonyl]amino}-2,5-difluorobenzoyl)-3-[5-(1-methyl-2,4-dioxo-1,4-dihydropyrido[3,4-d]pyrimidin-3(2H)-yl)pyridin-2-yl]-L-alanine]
≤ 10	COc1ccccc1S(=O)(=O)Nc1cc(F)c(C(=O)N[C@@H](Cc2ccc(-n3c(=O)c4ccncc4n(C)c3=O)cc2)C(=O)O)c(F)c1 [Example 143, N-(2,6-Difluoro-4-{[(2-methoxyphenyl)sulfonyl]amino}benzoyl)-4-(1-methyl-2,4-dioxo-1,4-dihydropyrido[3,4-d]pyrimidin-3(2H)-yl)-L-phenylalanine]
10 to 50	Cn1c(=O)n(-c2ccc(C[C@H](NC(=O)c3cc(F)c(NS(=O)(=O)c4ccc(-n5cncn5)cc4)cc3F)C(=O)O)cc2)c(=O)c2ccncc21 [Example 225, N-[2,5-Difluoro-4-({[4-(1H-1,2,4-triazol-1-yl)phenyl]sulfonyl}amino)benzoyl]-4-(1-methyl-2,4-dioxo-1,4-dihydropyrido[3,4-d]pyrimidin-3(2H)-yl)-L-phenylalanine]
10 to 50	Cn1c(=O)n(-c2ccc(C[C@H](NC(=O)c3c(F)cc(NS(=O)(=O)c4ccccc4O)cc3F)C(=O)O)nc2)c(=O)c2ccncc21 [Example 185, N-(2,6-Difluoro-4-{[(2-hydroxyphenyl)sulfonyl]amino}benzoyl)-3-[5-(1-methyl-2,4-dioxo-1,4-dihydropyrido[3,4-d]pyrimidin-3(2H)-yl)pyridin-2-yl]-L-alanine]
10 to 50	CC(=O)c1ccc(S(=O)(=O)Nc2cc(F)c(C(=O)N[C@@H](Cc3ccc(-n4c(=O)c5ccncc5n(C)c4=O)cn3)C(=O)O)cc2F)cc1 [Example 141, N-(4-{[(4-Acetylphenyl)sulfonyl]amine}-2,5-difluorobenzoyl)-3-[5-(1-methyl-2,4-dioxo-1,4-dihydropyrido[3,4-d]pyrimidin-3(2H)-yl)pyridin-2-yl]-L-alanine]
10 to 50	Cn1c(=O)n(-c2ccc(C[C@H](NC(=O)c3ccc(NS(=O)(=O)c4ccc[nH]4)cc3F)C(=O)O)nc2)c(=O)c2ccncc21 [Example 182, N-{2-Fluoro-4-[(1H-pyrrol-2-yl-sulfonyl)amino]benzoyl}-3-[5-(1-methyl-2,4-dioxo-1,4-dihydropyrido[3,4-d]pyrimidin-3(2H)-yl)pyridin-2-yl]-L-alanine]
10 to 50	Cc1ccc(-c2ccc(S(=O)(=O)Nc3cc(F)c(C(=O)N[C@@H](Cc4ccc(-n5c(=O)c6ccncc6n(C)c5=O)cc4)C(=O)O)c(F)c3)nc2)cn1 [Example 151, N-(2,6-Difluoro-4-{[(6′-methyl-3,3′-bipyridin-6-yl)sulfonyl]amino}benzoyl)-4-(1-methyl-2,4-dioxo-1,4-dihydropyrido[3,4-d]pyrimidin-3(2H)-yl)-L-phenylalanine]
10 to 50	Cn1c(=O)n(-c2ccc(C[C@H](NC(=O)c3ncc(NS(=O)(=O)c4ccco4)cc3F)C(=O)O)cc2)c(=O)c2ccncc21 [Example 183, N-({3-Fluoro-5-[(2-furylsulfonyl)amino]pyridin-2-yl}carbonyl)-4-(1-methyl-2,4-dioxo-1,4-dihydropyrido[3,4-d]pyrimidin-3(2H)-yl)-L-phenylalanine]
10 to 50	Cn1ccc(=O)n(-c2ccc(C[C@H](NC(=O)c3c(F)cc(NS(=O)(=O)c4ccncc4)cc3F)C(=O)O)cc2)c1=O [Example 171, N-{2,6-Difluoro-4-[(pyridin-4-yl-sulfonyl)amino]benzoyl}-4-(3-methyl-2,6-dioxo-3,6-dihydropyrimidin-1 (2H)-yl)-L-phenylalanine]
10 to 50	Cn1c(=O)n(-c2ccc(C[C@H](NC(=O)c3c(F)cc(NS(=O)(=O)c4ccc(C(=O)NC5CCCC5)cc4)cc3F)C(=O)O)cc2)c(=O)c2ccncc21 [Example 166, N-{4-[({4-[(Cyclopentylamino)carbonyl]phenyl}sulfonyl)amino]-2,6-difluorobenzoyl}-4-(1-methyl-2,4-dioxo-1,4-dihydropyrido[3,4-d]pyrimidin-3(2H)-yl)-L-phenylalanine]
50 to 200	COc1ncc(-c2ccc(S(=O)(=O)Nc3cc(F)c(C(=O)N[C@@H](Cc4ccc(-n5c(=O)c6ccncc6n(C)c5=O)cn4)C(=O)O)cc3F)cc2)cn1 [Example 228, N-[2,5-Difluoro-4-({[4-(2-methoxypyrimidin-5-yl)phenyl]sulfonyl}amino)benzoyl]-3-[5-(1-methyl-2,4-dioxo-1,4-dihydropyrido[3,4-d]pyrimidin-3(2H)-yl)pyridin-2-yl]-L-alanine]
≤ 10	Cn1c(=O)n(-c2ccc(C[C@H](NC(=O)c3ccc(NS(=O)(=O)c4cc[n+]([O-])cc4)cc3F)C(=O)O)cc2)c(=O)c2cc[n+]([O-])cc21 [Example 179, (2S)-2-[[2-Fluoro-4-[(1-oxidopyridin-1-ium-4-yl)sulfonylamino]benzoyl]amino]-3-[4-(1-methyl-7-oxido-2,4-dioxo-pyrido[3,4-d]pyrimidin-7-ium-3-yl)phenyl]propanoic Acid]
≤ 10	Cn1ccc(=O)n(-c2ccc(C[C@H](NC(=O)c3c(F)cc(NS(=O)(=O)c4ccc(C(=O)NC(C)(C)C)nc4)cc3F)C(=O)O)cc2)c1=O [Example 173, N-{4-[({6-[(tert-Butylamino)carbonyl]pyridin-3-yl}sulfonyl)amino]-2,6-difluorobenzoyl}-4-(3-methyl-2,6-dioxo-3,6-dihydropyrimidin-1(2H)-yl)-L-phenylalanine]
≤ 10	CCC(CC)NC(=O)c1ccc(S(=O)(=O)Nc2cc(F)c(C(=O)N[C@@H](Cc3ccc(-n4c(=O)ccn(C)c4=O)cc3)C(=O)O)c(F)c2)cc1 [Example 170, N-(4-{[(4-{[(1-Ethylpropyl)amino]carbonyl}phenyl)sulfonyl]amino}-2,6-difluorobenzoyl)-4-(3-methyl-2,6-dioxo-3,6-dihydropyrimidin-1(2H)-yl)-L-phenylalanine]
≤ 10	Cn1ccc(=O)n(-c2ccc(C[C@H](NC(=O)c3c(F)cc(NS(=O)(=O)c4ccc(C(=O)NC5CCCC5)cc4)cc3F)C(=O)O)cc2)c1=O [Example 165, N-{4-[({4-[(Cyclopentylamino)carbonyl]phenyl}sulfonyl)amino]-2,6-difluorobenzoyl}-4-(3-methyl-2,6-dioxo-3,6-dihydropyrimidin-1(2H)-yl)-L-phenylalanine]
50 to 200	Cn1c(=O)n(-c2ccc(C[C@H](NC(=O)c3cc(F)c(NS(=O)(=O)c4ccc(-c5ncccn5)cn4)cc3F)C(=O)O)nc2)c(=O)c2ncccc21 [Example 230, N-(2,5-Difluoro-4-{[(5-pyrimidin-2-ylpyridin-2-yl)sulfonyl]amino}benzoyl)-3-[5-(1-methyl-2,4-dioxo-1,4-dihydropyrido[3,2-d]pyrimidin-3(2H)-yl)pyridin-2-yl]-L-alanine]
10 to 50	Cn1c(=O)n(-c2ccc(C[C@H](NC(=O)c3cc(F)c(NS(=O)(=O)c4ccc(-n5cnnc5)cc4)cc3F)C(=O)O)nc2)c(=O)c2ccncc21 [Example 219, N-[2,5-Difluoro-4-({[4-(4H-1,2,4-triazol-4-yl)phenyl]sulfonyl}amino)benzoyl]-3-[5-(1-methyl-2,4-dioxo-1,4-dihydropyrido[3,4-d]pyrimidin-3(2H)-yl)pyridin-2-yl]-L-alanine]
